In the supplement of paper PMC10307832:

What was measured:
Experiment in all cases: relative viability (nuclei count vs DMSO), 5 days (fraction); higher = more cells survive
[1] = compound: O=C(CCCCCCNC(=O)c1cnc(N(c2ccccc2)c2ccccc2)nc1)NO [Ricolinostat] + N=C(N)NC(=N)NCCc1ccccc1 [Phenformin] (partner 250 µM)
How it was run: (§1)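 Relative viability was taken as the ratio of nuclei in treated wells to nuclei in vehicle wells. Lung cancer cell lines in 1536-well plates received compounds by pin tool one day after seeding, either one drug alone or a fixed anchor-drug dose plus five library-drug doses (not always all listed) in √10 steps. Nuclei were counted on 4× images after 5 days of treatment, and values are medians of duplicate plates.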

TGX 221 + Phenformin = compound: CC1=CN2C(=O)C=C(N=C2C(=C1)C(C)NC3=CC=CC=C3)N4CCOCC4 [TGX 221] + N=C(N)NC(=N)NCCc1ccccc1 [Phenformin] (partner 250 µM)
How it was run: as §1

[2] = compound: C1=CC=C(C(=C1)C2=CC=C(C=C2)C3=CSC4=C3C(=C(C(=O)N4)C#N)O)O + CC(=O)c1c(C)c2cnc(Nc3ccc(N4CCNCC4)cn3)nc2n(C2CCCC2)c1=O [Palbociclib] (partner 0.5 µM)
How it was run: as §1

TGX 221 + Olaparib = compound: CC1=CN2C(=O)C=C(N=C2C(=C1)C(C)NC3=CC=CC=C3)N4CCOCC4 [TGX 221] + O=C(c1cc(Cc2n[nH]c(=O)c3ccccc23)ccc1F)N1CCN(C(=O)C2CC2)CC1 [Olaparib] (partner 8 µM)
How it was run: as §1

Cell Line	relative viability ([1]; first compound 0.08 µM)	relative viability ([1]; first compound 0.253 µM)	relative viability ([1]; first compound 0.8 µM)	relative viability ([1]; first compound 2.53 µM)	relative viability (TGX 221 + Phenformin; first compound 0.08 µM)	relative viability (TGX 221 + Phenformin; first compound 0.253 µM)	relative viability (TGX 221 + Phenformin; first compound 0.8 µM)	relative viability (TGX 221 + Phenformin; first compound 2.53 µM)	relative viability (TGX 221 + Phenformin; first compound 8 µM)	relative viability ([2]; first compound 0.08 µM)	relative viability ([2]; first compound 0.253 µM)	relative viability ([2]; first compound 0.8 µM)	relative viability ([2]; first compound 2.53 µM)	relative viability ([2]; first compound 8 µM)	relative viability (TGX 221 + Olaparib; first compound 0.08 µM)	relative viability (TGX 221 + Olaparib; first compound 0.253 µM)	relative viability (TGX 221 + Olaparib; first compound 0.8 µM)	relative viability (TGX 221 + Olaparib; first compound 2.53 µM)	relative viability (TGX 221 + Olaparib; first compound 8 µM)
SK-LU-1	0.449	0.666	0.565	0.395	0.542	0.502	0.498	0.491	0.477	0.35	0.37	0.378	0.389	0.355	0.453	0.47	0.442	0.42	0.432
SK-MES-1	0.597	0.599	0.678	0.672	0.71	0.66	0.706	0.719	0.574	0.296	0.305	0.306	0.305	0.315	0.65	0.691	0.744	0.554	0.465
SW 900	0.441	0.635	0.433	0.48	0.572	0.455	0.473	0.448	0.525	–	0.621	0.638	0.518	0.429	–	0.787	0.701	0.578	0.562
SW 1573	0.316	0.393	0.474	0.551	0.325	0.296	0.409	0.322	0.369	0.366	0.378	0.447	0.396	0.321	0.48	0.422	0.511	0.406	0.479
UMC-11	0.273	0.344	0.271	0.194	0.322	0.288	0.302	0.349	0.324	0.369	0.374	0.336	0.345	0.366	0.379	0.503	0.346	0.319	0.338
